For the experiment, the system named is Snrpn promoter (IG-DMR GFP/Pat reporter), skin dermal cells. Briefly: In vivo activation of the IG-DMR GFP/Pat reporter in mouse skin (lentiviral delivery). The text has this: FIGS. 7A-7H depict targeted ex vivo and in vivo DNA methylation editing by dCas9-Tet1 to activate a silenced GFP reporter. FIG. 7A provides a schematic diagram illustrating the experimental procedure for the ex vivo activation of a silenced GFP reporter in mouse fibroblast cells. Mouse tail fibroblast cells were derived from a genetically modified mouse line carrying a paternal IG-DMR-Snrpn-GFP allele (IG-DMRGFP/Pat) in the Dlk1-Dio3 locus. The IG-DMR-Snrpn promoter on the paternal allele is hypermethylated so that the GFP reporter is constitutively silenced. The cultured fibroblast cells were infected with lentiviral vectors expressing dCas9-Tet1 and gRNAs to demethylate the Snrpn promoter and activate the GFP reporter. Cells are subject to imaging and FACS analysis. […] Stained in red for Cherry, green for GFP and DAPI for nuclei. Scale bar: 100 um. […] Brains were sliced and analyzed by immunohistochemical approaches. […] FIGS. 7G-7H provide quantification of the percentage of IG-DMR^GFP/Pat cells with GFP activation in Cherry (gRNAs) positive cells in the in vivo lentiviral delivery experiment in the brain (FIG. 7G) and in the skin epidemis (FIG. 7H). […]
FIGS. 14A-14F depict activation of IG-DMR^GFP/Pat reporter in mouse skin cells by dCas9-Tet1 mediated demethylation. […] Note red auto-fluorescence on the left edges of the epidermis. […]

The text below walks through data of US12060588B2, “Methods of editing DNA methylation” (Whitehead Institute for Biomedical Research, priority 2016, dated 2024).

Consider “dC-dT: dCas9 fused to an inactive mutant form of Tet1 (H1672Y, D1674A), SEQ ID NO: 160”, for which the “GFP reporter activation in infected (Cherry positive) skin dermal cells in vivo” value (with Snrpn gRNAs, lentiviral injection into dermal sites, 3 days) is on record as “did not activate GFP reporter expression”.

Turning to “dCas9-Tet1: catalytically inactive Cas9 (dCas9) fused through NLS to the Tet1 catalytic domain, SEQ ID NO: 159; lentivirally expressed with gRNAs”, the “GFP reporter activation in infected skin dermal cells in vivo” value (with a scrambled gRNA) was “did not activate GFP reporter expression”.
